Measurements reported in paper PMC3834928, “SNEDDS Containing Poorly Water Soluble Cinnarizine; Development and in Vitro Characterization of Dispersion, Digestion and Solubilization” (Pharmaceutics, 2012).
≈ marks a conversion by molar mass, not a printed value.

Key:
[1] = Solubility of cinnarizine in SNEDDSs, excipients and buffer (excess drug, end-over-end rotation, HPLC); assay type: physicochemical
Method: An excess of cinnarizine was added to the SNEDDSs, selected excipients (sesame oil and oleic acid) and 100 mM TRIS maleate buffer, pH 6.5. The resulting suspensions were placed in an end-over-end rotating device protected from light at 25 °C for the SNEDDSs and at 37 °C for the excipients and buffer; the temperatures were selected for storage purpose and for its physiological relevance, respectively. Samples were withdrawn at specified time points, i.e., 28, 50, and 72 h for the SNEDDSs, 22 h and 48 h for the excipients, and at 51 h and 75 h for the buffer. Samples were centrifuged at 15,000 rpm for 45 min (Biofuge 15, Hereaus-Sepatech, Oterode, Germany). Between two and three drops of supernatant were weighed in a 10 mL volumetric flask and diluted with ethanol. This solution was further diluted with mobile phase to an appropriate concentration. Samples from the buffer were diluted with mobile phase. Quantification of cinnarizine was performed as described in the analytical section. The determination of solubility was considered attained when samples from two consecutive time points varied by less than 5%. The solubilities were determined in triplicate.
(§1) The concentration of cinnarizine was determined using a HPLC method. A HPLC system (Hitachi, Merck, Darmstadt, Germany) equipped with a D-7000 interface, an L-7200 autosampler, a L-7100 pump, a L-7300 column oven (35 °C), and a L-7400 UV detector or a L-7480 fluorescence detector. Data was processed by using HPLC System Manager Version 4.0 from Merck (Darmstadt, Germany). Chromatographic separation was obtained using a Luna C18 150 × 4.6 mm, 5 µm, column and a C18 guard column (Phenomenex, Torrance, CA, USA). The mobile phase consisted of 50% (v/v) acetonitrile and 50% (v/v) 20 mM ammonium dihydrogen phosphate monobasic buffer, pH 4.5. The temperature of the column was maintained at 35 °C and the flow rate and injection volume were 1 mL/min and 25 µL, respectively. The UV detection was carried out at 253 nm and quantification was performed from peak areas using a six point linear standard curve ranging from 0.25–4 µg/mL.

[2] = Colloidal dispersion of SNEDDSs in FaSSGF pH 1.6 (USP II apparatus); assay type: physicochemical; details: FaSSGF pH 1.6, 37 °C, during the experiment (60 min), all four SNEDDSs
Method: as §1
Colloidal dispersion studies were performed in 250 mL fasted-state, simulated gastric fluid (FaSSGF) at pH 1.6. […] A quantity of 1 g of each SNEDDS containing 25 mg cinnarizine was weighed on a watch glass, and the glass with formulation was gently slid down the vessel wall to the bottom of the dissolution vessel and thereby introduced into the dispersion medium. […]

[3] = log POct/W; cited from earlier work
[4] = cited from earlier work
[5] = cited from earlier work; remark: listed apart in the source
[6] = set-up: method as in PMID 7616366; details: dogs, n = 4, mean ± SEM; cited from earlier work

| solubility ([1]; 100 mM TRIS maleate buffer pH 6.5, 37 °C, n = 3, read-out: Aqueous solubility (37 °C)) [µg/mL] | Cinnarizine solubility in SNEDDS I ([1]; in SNEDDS I preconcentrate, 25 °C, mean ± SD (n = 3)) [mg/g] | Cinnarizine solubility in SNEDDS II ([1]; in SNEDDS II preconcentrate, 25 °C, mean ± SD (n = 3)) [mg/g] | Cinnarizine solubility in SNEDDS III ([1]; in SNEDDS III preconcentrate, 25 °C, mean ± SD (n = 3)) [mg/g] | Cinnarizine solubility in SNEDDS IV ([1]; in SNEDDS IV preconcentrate, 25 °C, mean ± SD (n = 3)) [mg/g] | Cinnarizine solubility in oleic acid ([1]; in oleic acid, 37 °C, mean ± SD (n = 3)) [mg/g] | Cinnarizine solubility in sesame oil ([1]; in sesame oil, 37 °C, mean ± SD (n = 3)) [mg/g] | Precipitation of cinnarizine during colloidal dispersion [2] | Compound | Log P [3] | pKa [4] | Cinnarizine solubility in oleic acid (previous study) ([5]; in oleic acid, 25 °C) [mg/g] | Solubility of cinnarizine in water at low pH ([5]; pH 1.3) [µg/mL] | Bioavailability from a conventional capsule [6] | Bioavailability from an aqueous suspension formulation [6] | pKa in water ([4]; in water) | apparent pKa in mixed bile acid/phospholipid micelles ([4]; incorporated into mixed bile acid/phospholipid micelles) |
| --- | --- | --- | --- | --- | --- | --- | --- | --- | --- | --- | --- | --- | --- | --- | --- | --- |
| 0.39 ± 0.1 (≈ 1.06 µM) | 67.4 ± 0.9 | 58.8 ± 0.5 | 36.4 ± 0.7 | 28.3 ± 0.8 | 335 ± 3 | 25.7 ± 0.4 | not observed | C(=C\c1ccccc1)/CN1CCN(C(c2ccccc2)c2ccccc2)CC1 [Cinnarizine, cinnarizine] | 5.77 [16] | 1.95 [18] | 237 | 853 | 0.8% ± 0.4% | 8% ± 4% |  |  |
|  |  |  |  |  |  |  |  | CCCCCCCC/C=C\CCCCCCCC(=O)O [oleic acid] |  |  |  |  |  |  | 9.85 | 6.5 |
